Patent US6255497A, “Method for the inhibition of ALDH-I useful in the treatment of alcohol dependence or alcohol abuse” (priority 1998, dated 2001)

What was measured:
ALDH-I = target: T1, ALDH-I (Homo sapiens, UniProt P05091); test: Inhibition kinetics of ALDH-I, initial velocity method, formaldehyde as substrate; conditions: from Ki values of Table II
T1 sequence (P05091 18-517): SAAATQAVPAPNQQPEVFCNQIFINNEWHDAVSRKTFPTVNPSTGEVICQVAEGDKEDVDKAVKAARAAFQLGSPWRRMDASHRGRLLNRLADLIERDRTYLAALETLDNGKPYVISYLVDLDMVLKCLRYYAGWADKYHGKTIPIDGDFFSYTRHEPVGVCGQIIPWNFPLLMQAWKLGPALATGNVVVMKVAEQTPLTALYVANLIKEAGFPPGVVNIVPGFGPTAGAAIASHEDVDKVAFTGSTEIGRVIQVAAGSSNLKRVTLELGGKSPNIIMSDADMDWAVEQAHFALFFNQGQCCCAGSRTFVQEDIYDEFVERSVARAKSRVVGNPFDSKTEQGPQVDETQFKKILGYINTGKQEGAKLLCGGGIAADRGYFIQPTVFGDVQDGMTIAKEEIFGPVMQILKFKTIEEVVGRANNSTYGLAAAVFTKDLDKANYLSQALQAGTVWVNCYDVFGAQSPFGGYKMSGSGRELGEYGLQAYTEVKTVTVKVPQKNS
Procedure: The kinetic data were analyzed by standard graphical methods.

golden hamsters [1] = test: Effect of daidzin on free choice ethanol intake in golden hamsters; assay type: in vivo, golden hamster; conditions: 10 mg/day
Source text: Hamsters were chosen as described in Example 4 based on previous reports that they display high ethanol intake and preference in comparison with several other mammalian species, and that this was correlated with differences in ethanol metabolism. Kulkosky and Cornell, 1979, supra.
The animals used in these experiments are adult male golden hamsters (outbred, Lakeview Lak: LVG[SYR]), purchased from Charles River Laboratories, Wilmington, Mass. 01887. Upon arrival, hamsters are housed (4 per cage) with ad libitum access to food and tap water in a room maintained at 23° C. on a 12/12 light/dark cycle (light on 0600-1800 hr.) for 1 week. Following this acclimation period, each hamster is transferred to an individual stainless steel metabolic cage (26×18×17.5 cm) with a wire mesh floor for the remainder of the experiment. Each cage is equipped with a stainless steel food hopper located on the right side of the front wall which was kept filled with food. Two 50 ml drinking bottles fitted with stainless steel sipper tubes are placed on the left side of the front wall. Under the sipper tubes are funnels which collect and direct spillage to tubes placed outside of the cages. Fluids are provided mainly during the dark cycle (1800-0800 hr.) and fluid intake is measured in the morning at the same time each day, for example, at 0800 hr. During this baseline period, for example, 8 days, two drinking solutions are provided for each animal. One is tap water; the other is a 30% v/v solution of ethanol (100% USP). The position of the two drinking bottles on each cage is alternated daily to prevent the development of positional preference.
In other experiments, subcutaneous administration is preferably omitted, and each hamster receives only daily oral administration by feeding as described herein. […] This decline in alcohol intake was accompanied by a concomitant increase in water intake.

golden hamsters [2] = test: Dose effect on free choice ethanol intake in golden hamsters, i.p.; assay type: in vivo, golden hamster; conditions: i.p.
Source text: It is common practice in quantitative drug studies with rodents to use intraperitoneal (i.p.) administration to deliver drug doses accurately (Goodman and Gilman, 1975, The Pharmacological Basis of Therapeutics, 5th ed., Macmillan, N.Y., p. 8). In particular, this method avoids variability introduced by technical difficulties of oral administration via feeding (full versus empty stomach, etc.), variations in drug transport in the gastrointestinal tract (variations in intestinal fauna and flora, individual variations in absorption rate expected of outbred animals, etc.) and other factors. […] As a control 1 ml of sterile saline was injected i.p. daily during the baseline period (typically 7-9 days) that establishes drinking preference without the drug. Saline injection i.p. had no effect on the drinking behavior of golden hamsters. Ethanol was provided as a 20% solution. Hamsters could be used more than once (but were not used more than three times) in a cycle of baseline saline injections followed by drug injections, each cycle with the drug at a different dose.
The response to daidzin treatment was computed as:
% Response=(Vo -Vd)×100/Vo

ADH isozymes = test: Inhibition of ADH; assay type: biochemical, human
[3] = high doses; cited from earlier work
rats = conditions: subcutaneous in propylene glycol; cited from earlier work
mice = conditions: subcutaneous in propylene glycol; cited from earlier work
ALDH-II = target: T2, ALDH-II (Homo sapiens, UniProt P00352); test: Competitive inhibition of ALDH-II with acetaldehyde as substrate; assay type: biochemical; set-up: A liver sample (50 g wet weight) with the usual Caucasian ALDH phenotype (both ALDH-I and ALDH-II present); from tissue; host or cells: human liver (autopsy), purified by CM-52, AMP-agarose and DEAE HPLC
T2 sequence (P00352 1-501): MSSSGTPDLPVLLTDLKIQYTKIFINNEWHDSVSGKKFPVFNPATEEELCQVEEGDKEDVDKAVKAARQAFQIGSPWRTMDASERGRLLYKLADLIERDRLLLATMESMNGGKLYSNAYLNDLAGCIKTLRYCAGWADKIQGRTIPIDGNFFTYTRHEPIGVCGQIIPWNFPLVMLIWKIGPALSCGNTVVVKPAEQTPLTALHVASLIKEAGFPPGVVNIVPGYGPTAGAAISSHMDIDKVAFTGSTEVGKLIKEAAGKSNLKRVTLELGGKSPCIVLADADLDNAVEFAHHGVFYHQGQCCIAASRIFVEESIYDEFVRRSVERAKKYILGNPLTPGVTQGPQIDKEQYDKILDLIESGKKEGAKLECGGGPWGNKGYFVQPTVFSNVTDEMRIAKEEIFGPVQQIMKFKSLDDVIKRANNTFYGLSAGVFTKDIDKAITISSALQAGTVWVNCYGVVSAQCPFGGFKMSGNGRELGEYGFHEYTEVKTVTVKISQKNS

## O=c1c(-c2ccc(O)cc2)coc2cc(O[C@@H]3O[C@H](CO)[C@@H](O)[C@H](O)[C@H]3O)ccc12 [Daidzin, 7-glucoside of daidzein]
ALDH-I
  more effective inhibition of human ALDH-I than of human ALDH-II: 500 fold
Golden hamsters [1]
  effect apparent after the first dose, hamster Number 9: fourth day after the first dose
  start of decline of alcohol intake after the first dose, hamster Number 6: 2 days
Golden hamsters [1]; hamster Number 6
  total fluid intake during daidzin administration: slightly decreased
  total water intake (water bottle plus water in ethanol mixture): stayed nearly constant
Golden hamsters [2]; 20% ethanol, 5 mg/day
  suppression of alcohol intake at 5 mg/day: 20%
Golden hamsters [2]; 20% ethanol, 10 mg/day
  suppression of alcohol intake at 10 mg/day: 50%
Golden hamsters [2]; 20% ethanol, 30 mg/day
  suppression of alcohol intake at 30 mg/day: 80%
Golden hamsters [2]; golden hamsters
  EC50 or half-maximal response, suppression of alcohol intake: 10 mg/day
ADH isozymes
  ADH inhibition: inhibits the second but not the first step in human ethanol metabolism
[3]
  estrogenic activity: estrogenic activity at high doses
rats
  antifebrile (hypothermic) effect: no antifebrile (hypothermic) effect
mice
  spasmolytic effect: no spasmolytic effect
ALDH-II
  Ki: 28 µM
